Measured values reported in ChEMBL document CHEMBL1201862, “PubChem BioAssay data set” (2004).
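Exposure lasted 48 hours, with cells grown in 96-well plates and compounds tested at five concentrations. At the GI50, growth is halved.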 Active and inactive are the calls of the source. Rule as the data show it: active = GI50 up to about 1.1 µM and inactive = higher.

Experiments:
Test in all cases: growth of human tumour cells (NCI), 48 h
DLD-1 = tested on: DLD-1
DMS-114 = tested on: DMS-114
DMS-273 = tested on: DMS-273
HOP-18 = tested on: HOP-18
KM-20L2 = tested on: KM-20L2
LXFL 529 = tested on: LXFL 529
RXF 631 = tested on: RXF 631
XF498 = tested on: XF498
SNB-78 = tested on: SNB-78

SMILES	GI50 (DLD-1)	GI50 (DMS-114)	GI50 (DMS-273)	GI50 (HOP-18)	GI50 (KM-20L2)	GI50 (LXFL 529)	GI50 (RXF 631)	GI50 (XF498)	GI50 (SNB-78)
CC(=O)O[C@H]1[C@@H]2[C@@H]3[C@@H](C[C@H]1C)[C@@H](C)CO[C@@]1(C)CC/C=C(/C)C[C@@H]2O[C@@H]31	> 100 µM (inactive)	> 100 µM (inactive)	> 100 µM (inactive)	> 100 µM (inactive)	> 100 µM (inactive)	> 100 µM (inactive)	> 100 µM (inactive)	> 100 µM (inactive)	
O=C(/C=C/c1ccco1)c1ccc(NCc2nc3ccccc3[nH]2)cc1	15 µM (inactive)	12 µM (inactive)	17.5 µM (inactive)	20.9 µM (inactive)	18.7 µM (inactive)	14.3 µM (inactive)			21.3 µM (inactive)
O=C(O)CCC(=O)Oc1ccc(O)c2c1CCCC2=O	> 100 µM (inactive)	> 100 µM (inactive)	> 100 µM (inactive)	> 100 µM (inactive)	> 100 µM (inactive)	> 100 µM (inactive)		0.316 µM (active)	> 100 µM (inactive)
O=c1[nH]c(=O)n([C@H]2C[C@@H](CO)[C@@H](O)C2)cc1I	> 100 µM (inactive)	> 100 µM (inactive)	> 100 µM (inactive)	> 100 µM (inactive)	> 100 µM (inactive)	> 100 µM (inactive)			> 100 µM (inactive)
COc1ccc(NC(=O)CC/C(CC(=O)c2ccco2)=N/NC(N)=S)cc1	> 100 µM (inactive)	> 100 µM (inactive)	> 100 µM (inactive)	> 100 µM (inactive)	> 100 µM (inactive)	> 100 µM (inactive)	> 100 µM (inactive)	> 100 µM (inactive)	> 100 µM (inactive)
CCOC(=O)C(C)NC(=O)NC12CC3CC(CC(F)(C3)C1)C2 (configuration not stated)	> 100 µM (inactive)	> 100 µM (inactive)	> 100 µM (inactive)		> 100 µM (inactive)	> 100 µM (inactive)		27.4 µM (inactive)	27.9 µM (inactive)
CC1(C)OCC([C@H]2CC23SCCCS3)O1 (some centres not stated)	> 100 µM (inactive)	> 100 µM (inactive)	> 100 µM (inactive)	> 100 µM (inactive)	> 100 µM (inactive)	> 100 µM (inactive)		> 100 µM (inactive)	> 100 µM (inactive)
CCOc1ccc(/C(C=O)=C(\Cl)c2ccc(OC)cc2)cc1	> 100 µM (inactive)	40.5 µM (inactive)	> 100 µM (inactive)	42.3 µM (inactive)	> 100 µM (inactive)	> 100 µM (inactive)		> 100 µM (inactive)	> 100 µM (inactive)
CCOC(=O)Nc1ccc2c(c1)N(C(=O)CCN(CC)CC)c1ccccc1S2 [ETHACIZINE]	29.1 µM (inactive)	18.2 µM (inactive)	27 µM (inactive)	42 µM (inactive)	19.3 µM (inactive)	19 µM (inactive)		18.1 µM (inactive)	5.18 µM (inactive)
C[C@H]1CC[P+](Cc2ccccc2)(c2ccccc2)C1 (some centres not stated)	> 100 µM (inactive)	23 µM (inactive)	> 100 µM (inactive)	> 100 µM (inactive)	93.5 µM (inactive)	26.4 µM (inactive)		< 0.01 µM (active)	
CCOC(=O)C1CC(=O)C=C2CCCCC21 (configuration not stated)	> 100 µM (inactive)	> 100 µM (inactive)	> 100 µM (inactive)			> 100 µM (inactive)	> 100 µM (inactive)	> 100 µM (inactive)	> 100 µM (inactive)
O=C1NC(Cc2ccc(O)cc2)C(=O)N2CCCC12 (configuration not stated)	> 100 µM (inactive)	> 100 µM (inactive)	> 100 µM (inactive)	> 100 µM (inactive)	> 100 µM (inactive)	> 100 µM (inactive)	> 100 µM (inactive)		> 100 µM (inactive)
